Test results from patent US9988408B2, “Cytotoxic agents for conjugation to a cell binding molecule” (priority 2013, dated 2018).

Key:
Raji cells = assay: In vitro cytotoxicity (potency) against Raji cells, WST-8 cell viability assay; format: cell-based; conditions: Homo sapiens, 120 h, read-out: IC50 values towards Raji cells
Method: In Vitro Potency Measurement Against Raji Cells in 37° C., 5 Day Incubation
(§1) General Procedure Used: Samples of unconjugated free drug compounds or drug conjugates were added to 96-well flat bottomed tissue culture plates and titrated using serial dilutions to cover the desired molar range. Antigen positive (Ag^+) or Antigen negative (Ag^−) cells were added to the wells in specific cell densities (1000˜10000 cells/wall) in such a way that there were triplicate samples for each drug concentration for each corresponding cell line. All other cell lines were grown in RPMI-1640 (catalog no. 11875-085, Invitrogen), supplemented with 10% fetal bovine serum and gentamycin. The plates were then incubated at 37° C. in an atmosphere of 5% CO2 for 5 days. At the end of the incubation period cytotoxic potencies were then assessed using a WST-8 based cell viability assay and surviving cells were measured by developing with WST-8 (2-7 hours). The absorbance in each well was measured and the surviving fraction of cells at each concentration was plotted to reveal the cytotoxicity and/or antigen specificity (of the conjugates). The potency and specificity of the antibody-drug conjugates were measured against antigen-expressing cells, with and without the additions of an excess amount of blocking unconjugated antibody to show specificity of the killing effect.

Ramos cells = assay: In vitro cytotoxicity (potency) against Ramos cells, WST-8 cell viability assay; format: cell-based; conditions: Homo sapiens, 120 h, read-out: IC50, in vitro potency against Ramos cells
Method: In Vitro Potency Measurement Against Ramos Cells in 37° C., 5 Day Incubation
as §1

## C=C1C[C@H]2C=Nc3cc(OCCP(=O)(CCOc4cc5c(cc4OC)C(=O)N4CC(=C)C[C@H]4C=N5)CCSSC)c(OC)cc3C(=O)N2C1 [Example 39]
Raji cells
  IC50: 0.005 to 0.011 nM

## COc1cc2c(cc1OCP(=O)(COc1cc3c(cc1OC)C(=O)C1C[C@@H](F)C[C@H]1C=N3)NCCCSSc1ccccn1)N=C[C@@H]1C[C@H](F)CC1C2=O (some centres unmarked) [Example 68]
Ramos cells
  IC50: 0.1 to 0.5 nM
